From US8304239B2, “Direct regeneration of plantlets in Jatropha curcas” (Reliance Life Sciences PVT Ltd., priority 2006, dated 2012)

How the values were obtained:
[1] = system: shoots of Jatropha curcas; experiment: Rooting of well grown shoots on full strength MS medium; format: cell-based; conditions: full strength MS medium supplemented with IBA (0.41 μM)
Experimental: Well grown shoots of Jatropha curcas were separated individually and rooted on full strength MS medium supplemented with IBA (0.41 μM). Rooting was 80% and occurred after 30-45 days of culture without any intermediary callus phase. (FIG. 4)

[2] = system: Jatropha leaf disc explants; experiment: Adventitious bud induction and callus formation from leaf disc explants on initiation media; format: cell-based, Jatropha curcas; conditions: TDZ treatment
Excerpt: Micropropagated true-to-type Jatropha curcas plants were produced and leaf discs were isolated and sterilized using the methods described in Example 1.
Experiments were set-up in a single-factor CRD (one-way ANOVA) to identify the most optimal concentrations of TDZ, BAP, and IBA in the initiation media. Initiated shoots were further propagated as described in the above Examples by being transferred to proliferation and elongation medium which was MS medium (Table 2) with 3% sucrose (w/v), pH 5.8 and solidified with 0.8% agar supplemented with TDZ (0.22 μM)+BAP (4.44 μM)+gibberelic acid (0.70 μM)+IBA (0.50 μM).
All the treatments were performed with 25 replicates, each replication having 8 leaf discs. Data on number of shoots per leaf disc were recorded after 6 weeks of culture.
Leaf discs cultured on almost all hormonal combinations readily produced hard and compact callus on cut surface within 30 days of culture. The adventitious bud induction from leaf disc explants was studied in presence of various concentrations of TDZ and BAP as a source of cytokinin along with very low levels of IBA.
Data scored after 6 weeks of culture inoculation.

Row | Compound | Time until rooting occurred [1] [days] | Rooting ([1]; without intermediary callus phase) [%] | total number of shoot bud induction per leaf disc [2]
1 | O=C(O)CCCc1c[nH]c2ccccc12 [IBA, indole-3-butyric acid] | 30 to 45 | 80 | –
2 | O=C(Nc1ccccc1)Nc1cnns1 [TDZ, 1-phenyl-3-(1,2,3-thiadiazol-5-yl) urea] | – | – | 4-20 buds
